Experimental data: patent US11351178B2, “Selective HDAC6 inhibitors” (ITALFARMACO S.P.A., priority 2017, dated 2022)

What was measured:
recombinant human HDAC6 = molecular target: T1, recombinant human HDAC6 (Homo sapiens, UniProt Q9UBN7); test: Enzymatic screening on recombinant human HDAC6; format: biochemical; conditions: Table 2; read-out: HDAC6 IC50
T1 sequence (Q9UBN7 1-1215): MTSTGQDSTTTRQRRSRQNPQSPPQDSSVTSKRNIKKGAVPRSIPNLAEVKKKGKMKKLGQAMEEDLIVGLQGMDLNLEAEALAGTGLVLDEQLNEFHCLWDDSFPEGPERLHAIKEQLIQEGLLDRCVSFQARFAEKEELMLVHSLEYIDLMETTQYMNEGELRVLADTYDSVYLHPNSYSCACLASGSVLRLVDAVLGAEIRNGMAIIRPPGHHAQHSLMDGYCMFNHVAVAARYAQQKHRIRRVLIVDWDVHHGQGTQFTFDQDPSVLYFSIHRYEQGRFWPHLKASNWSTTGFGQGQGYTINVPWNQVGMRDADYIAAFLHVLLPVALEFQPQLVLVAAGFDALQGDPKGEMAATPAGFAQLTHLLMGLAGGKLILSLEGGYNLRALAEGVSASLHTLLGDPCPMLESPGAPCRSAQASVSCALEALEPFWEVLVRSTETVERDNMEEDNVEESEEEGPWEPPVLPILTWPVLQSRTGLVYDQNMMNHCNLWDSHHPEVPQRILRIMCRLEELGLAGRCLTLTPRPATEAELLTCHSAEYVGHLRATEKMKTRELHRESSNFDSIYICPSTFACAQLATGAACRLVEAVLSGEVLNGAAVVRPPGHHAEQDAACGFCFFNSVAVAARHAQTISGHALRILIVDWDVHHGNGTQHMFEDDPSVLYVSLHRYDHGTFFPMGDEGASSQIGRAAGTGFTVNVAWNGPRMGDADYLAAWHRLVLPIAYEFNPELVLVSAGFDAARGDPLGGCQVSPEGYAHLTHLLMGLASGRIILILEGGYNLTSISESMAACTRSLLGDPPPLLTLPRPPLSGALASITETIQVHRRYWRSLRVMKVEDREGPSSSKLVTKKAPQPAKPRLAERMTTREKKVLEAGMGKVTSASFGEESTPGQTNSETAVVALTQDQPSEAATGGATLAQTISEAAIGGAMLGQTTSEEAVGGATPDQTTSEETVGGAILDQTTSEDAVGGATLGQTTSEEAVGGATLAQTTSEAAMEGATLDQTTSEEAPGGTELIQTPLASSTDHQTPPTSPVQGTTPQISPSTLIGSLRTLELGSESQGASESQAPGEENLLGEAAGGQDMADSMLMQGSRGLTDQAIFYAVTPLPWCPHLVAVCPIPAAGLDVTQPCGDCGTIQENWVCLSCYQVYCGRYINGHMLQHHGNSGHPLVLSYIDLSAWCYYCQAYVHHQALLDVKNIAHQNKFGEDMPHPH
Method: Enzymatic activity on recombinant human HDAC6 and HDAC3 was evaluated (Table 2) for each synthesized compound.
After a period of incubation at 30° C. (incubation times vary for different isoforms and are shown in table 1) 25 μL of solution containing the substrate were added. As substrate, FLUOR DE LYS® deacetylase substrate (Enzo Life Sciences, cat #BML-K1104, FdL), FLUOR DE LYS®-Green substrate (Enzo Life Sciences, cat #BML-K1572 FdL_G) and trifluoroacetyl-L-lysine (Tfal)-2× concentrated solution in 25 mM Tris-HCl, pH 8, 130 mM NaCl 0.05% Tween-20 10% glycerol) were used. Following a reaction period at 30° C.

[1] = Stability to Phase I metabolism in rat S9 liver fraction; format: in vitro ADME; conditions: after 90 min, 37° C.
Method: Test compounds were incubated in rat and human liver S9 fraction at 37° C. up to 90 minutes in order to evaluate their stability to Phase I metabolism by hepatic enzymes. […] The reaction was stopped placing samples on ice bath and adding acidified acetonitrile. After centrifugation (10 minutes at 14000 rpm) an aliquot of the supernatant was diluted water, filtered with 0.45 μm regenerated cellulose syringe filters and injected in HPLC-UV or in LC-MS/MS. The percentages of the amount remaining at the various incubation times with respect to the initial amount were calculated. The intrinsic clearance was also calculated.

Stability in rat plasma = format: in vitro ADME; conditions: after 4 hours, 37° C.
Method: In order to evaluate the stability to circulating enzymes, test compounds were incubated in human and rat plasma at 37° C. in a thermostated oscillating bath. Each test compound was incubated at μM (50 μM when the samples were analysed by UV/HPLC, 1 or 2 μM when the samples were analysed by LC-MS/MS) concentration for 0, 15, 30 min and 1, 2 and 4 hours. The reaction was stopped placing tubes on ice bath and adding acidified acetonitrile. After centrifugation for 10 minutes at 14000 rpm, an aliquot of the supernatant was diluted with water, filtered with 0.45 μm syringe filters and injected in HPLC-UV or in LC-MS/MS. The percentages of amount remaining at the various times of incubation with respect to initial amount were calculated. The half-life in plasma was also calculated.

Compound | IC50 (recombinant human HDAC6) [nM] | residual percentage in rat S9 fraction [1] [%] | residual percentage in rat plasma (Stability in rat plasma) [%]
Cn1c(Sc2c(F)cc(C(=O)NO)cc2F)nnc1-c1cccnc1 [comp. 153, 3,5-difluoro-4-[[4-methyl-5-(3-pyridyl)-1,2,4-triazol-3-yl]sulfanyl]benzenecarbohydroxamic acid] | 25 | 91 | 76
O=C(NO)c1ccc(Cn2nnnc2Cc2ccccc2)cc1 [comp. 37, 4-[(5-benzyltetrazol-1-yl)methyl]benzenecarbohydroxamic acid] | 212 | 82 | 6
Cn1c(Sc2c(F)cc(C(=O)NO)cc2F)nnc1C1(c2ccccc2)CCC1 [comp. 101, 3,5-difluoro-4-[[4-methyl-5-(1-phenylcyclobutyl)-1,2,4-triazol-3-yl]sulfanyl]benzenecarbohydroxamic acid] | 18 | 9 | 73
COc1ccc(-c2nnc(Cc3ccc(C(=O)NO)cc3)o2)cc1OC [comp. 57, 4-[[5-(3,4-dimethoxyphenyl)-1,3,4-oxadiazol-2-yl]methyl]benzenecarbohydroxamic acid] | 8 | 71 | 94
O=C(NO)c1cc(F)c(Cn2nnnc2-c2ccc3ccccc3n2)c(F)c1 [comp. 96, 3,5-difluoro-4-[[5-(2-quinolyl)tetrazol-1-yl]methyl]benzenecarbohydroxamic acid] | 7 | 41 | 99
O=C(NO)c1ccc(Cn2nnc(Cc3ccccc3)n2)cc1 [comp. 36, 4-[(5-benzyltetrazol-2-yl)methyl]benzenecarbohydroxamic acid] | 52 | 38 | 60
COc1ccc(C2(c3nnc(Sc4c(F)cc(C(=O)NO)cc4F)n3C)CCCCC2)cc1 [comp. 103, 3,5-difluoro-4-[[5-[1-(4-methoxyphenyl)cyclohexyl]-4-methyl-1,2,4-triazol-3-yl]sulfanyl]benzenecarbohydroxamic acid] | 56 | 5 | 79
COc1ccc(-c2nnnn2Cc2ccc(C(=O)NO)cc2)cc1OCc1ccccc1 [comp. 71, 4-[[5-(3-benzyloxy-4-methoxy-phenyl)tetrazol-1-yl]methyl]benzenecarbohydroxamic acid] | 52 | 58 | 4
O=C(NO)c1ccc(Cn2nnc(-c3ccc(S(F)(F)(F)(F)F)cc3)n2)cc1 [comp. 110, 4-[[5-[4-(pentafluoro-lambda6-sulfanyl)phenyl]tetrazol-2-yl]methyl]benzenecarbohydroxamic acid] | 25 | 16 | 92
Cc1ccsc1-c1nnn(Cc2ccc(C(=O)NO)cc2)n1 [comp. 39, 4-[[5-(3-methyl-2-thienyl)tetrazol-2-yl]methyl]benzenecarbohydroxamic acid] | 3 | 0 | 63
O=C(NO)c1cc(F)c(Sc2nnc(-c3ccccc3F)n2Cc2ccco2)c(F)c1 [comp. 145, 3,5-difluoro-4-[[5-(2-fluorophenyl)-4-(2-furylmethyl)-1,2,4-triazol-3-yl]sulfanyl]benzenecarbohydroxamic acid] | 16 | 7 | 79
O=C(NO)c1cc(F)c(Cn2nnnc2-c2cccc(S(F)(F)(F)(F)F)c2)c(F)c1 [comp. 109, 3,5-difluoro-4-[[5-[3-(pentafluoro-lambda6-sulfanyl)phenyl]tetrazol-1-yl]methyl]benzenecarbohydroxamic acid] | 35 | 72 | 10
COc1ccc(-c2nnn(Cc3ccc(C(=O)NO)cc3)n2)cc1OCc1ccccc1 [comp. 70, 4-[[5-(3-benzyloxy-4-methoxy-phenyl)tetrazol-2-yl]methyl]benzenecarbohydroxamic acid] | 9 | 18 | 79
Cc1nc(Sc2ccc(C(=O)NO)cc2)nn1-c1ccc(Cl)cc1Cl [comp. 62, 4-[[1-(2,4-dichlorophenyl)-5-methyl-1,2,4-triazol-3-yl]sulfanyl]benzenecarbohydroxamic acid] | 127 | 55 | 83
O=C(NO)c1cc(F)c(Cn2nnnc2Cc2ccccn2)c(F)c1.O=C(O)C(F)(F)F [comp. 135, 3,5-difluoro-4-[[5-(2-pyridylmethyl)tetrazol-1-yl]methyl]benzenecarbohydroxamic acid;2,2,2-trifluoroacetic acid] | 93 | 96 | 78
Cc1nc2ccc(F)cc2cc1-c1nnc(Sc2c(F)cc(C(=O)NO)cc2F)n1C [comp. 137, 3,5-difluoro-4-[[5-(6-fluoro-2-methyl-3-quinolyl)-4-methyl-1,2,4-triazol-3-yl]sulfanyl]benzenecarbohydroxamic acid] | 14 | 52 | 100
O=C(NO)c1ccc(Sc2nnc(-c3ccc(F)cc3)[nH]2)cc1 [comp. 29, 4-[[5-(4-fluorophenyl)-4H-1,2,4-triazol-3-yl]sulfanyl]benzenecarbohydroxamic acid] | 19 | 74 | 103
O=C(NO)c1cc(F)c(Cn2nnc(-c3ccc4ccccc4n3)n2)c(F)c1 [comp. 95, 3,5-difluoro-4-[[5-(2-quinolyl)tetrazol-2-yl]methyl]benzenecarbohydroxamic acid] | 10 | 41 | 75
